Assay results reported in paper PMC11006503, “New Tin (IV) and Organotin (IV) Complexes with a Hybrid Thiosemicarbazone/Hydrazone Ligand: Synthesis, Crystal Structure, and Antiproliferative Activity” (Bioinorganic Chemistry and Applications, 2024).
“Also recorded” adds a separate entry of the source. Where two headings read alike, the source gives them in different places.

Legend:
Assay type in all cases: cell-based, human
MDA-MB-231 cells [1] = assay: Cellular ROS measurement using DCFDA (fluorescence microscopy and flow cytometry)
Experimental: To measure the production of intercellular reactive oxygen species (ROS) produced by treatment with complex 3, the DCFDA method was used. MDA-MB-231 cells were seeded in a 6-well plate and treated with complex 3 (0.25 µM, 0.5 µM, and 1 µM) for 24 h using arsenic as a positive control agent and NAC as negative control. Post treatment, the media was discarded and incubated with 10 µM H2DCFDA for 30 min at 37°C. For fluorescence imaging, cells incubated with H2DCFDA were washed, resuspended in 1 × PBS, and directly imaged under a fluorescence microscope (Leica). For flow cytometric analysis, cells were then trypsinized, washed with 1 × PBS, and collected in centrifuge tubes. DCF fluorescence was measured using BD FACSVerse flow cytometer (BD Biosciences) and analyzed using Cell Quest software (BD Biosciences).

HeLa = assay: MTT cell proliferation assay; settings: 24 h; for IC50: MTT, mean ± SEM
Experimental: (§1) Four cancerous cell lines (human triple negative breast cancer cell line MDA-MB-231, human cervical cancer cell line HeLa, human prostate cancer cell line PC3, and human liver cancer cell line HepG2) and the human normal lung fibroblast cell line, WI-38, were obtained from the central cell repository of National Centre for Cell Science (NCCS), Pune. The cell lines were cultured in a T25 flask with Dulbecco's modified Eagle medium (DMEM), supplemented with 10% foetal bovine serum, nonessential amino acids, 1 mM sodium pyruvate, 2 mM L-glutamine, 100 mg/L streptomycin, […] penicillin, and 50 mg/L gentamycin in a 37°C humidified incubator containing 5% CO2. […] As DMSO has been used to prepare the different concentrations of the compounds, we have added 0.5% DMSO in the control setup. After the incubation period, media was discarded from the 96-well plates and washed with 1 × PBS solution twice. Then, MTT (100 µL; 0.5 mg/mL) was added to each well and incubated in a humidified incubator containing 5% CO2 at 37°C for 4 h. After discarding the supernatant, the purple-colored formazan crystals formed in the wells were dissolved with 100 μL DMSO per well and the absorbance was estimated at 490 nm using a microplate reader. The experiments were repeated three times, and the cell viability was expressed as a percentage of the control experimental setup. […] For all the MTT assays, three fully independent experiments have been performed, and each experiment has been conducted with biological triplicate samples.

PC3 = assay: MTT cell proliferation assay; settings: for IC50: MTT, mean ± SEM
Experimental: as §1

[2] = system: WI-38 normal lung fibroblast cell line; assay: MTT cell proliferation assay; settings: for IC50: normal cell line, MTT, mean ± SEM
Experimental: as §1

MDA-MB-231 = assay: MTT cell proliferation assay; settings: for IC50: MTT, mean ± SEM, read-out: IC50 MDA-MB231
Experimental: as §1

HepG2 = assay: MTT cell proliferation assay; settings: for IC50: MTT, mean ± SEM
Experimental: as §1

MDA-MB-231 cells [3] = assay: Cell cycle profiling by propidium iodide staining (flow cytometry); settings: 1.0 µM, 24 h, mean ± SEM
Experimental: MDA-MB-231 cells were seeded at a density of 1 × 10^6 cells/mL in each Petri dish for 24 h. Thereafter, the cells were treated with increasing concentration of complex 3 (0.25 µM, 0.5 µM, and 1 µM) for 24 h and 0.5% DMSO was added in the control setup. Post treatment, cells were harvested into single cell suspension and fixed by 75% ethanol for 24 h. at −20°C. After centrifugation, the cells pellets were resuspended in 1 × PBS followed by RNaseA (20 μM) treatment for 2 h at 37°C. Finally, propidium iodide was added and incubated at room temperature for 20 min. Subsequently, the samples were measured using BD FACSVerse flow cytometer (BD Biosciences, San Jose, CA) and analyzed using BD FACS DIVA software.

MDA-MB-231 cells [4] = assay: Annexin V-FITC/PI staining apoptosis assay (flow cytometry); settings: for annexin-V-FITC+/PI− (early apoptotic) and annexin V-FITC+/PI+ (late apoptotic) cell population: control 0.01%
Experimental: Induction of apoptosis was quantified via flow cytometric analysis of control ([…]) and cells treated with complex 3 (0.25 µM, 0.5 µM, and 1 µM) that were stained with annexin V-FITC/PI [50], using the Annexin V-FITC apoptosis detection kit according to the manufacturer's protocol (BD Bioscience). Post treatment cells were harvested with 1 × trypsin and washed in ice 1 × PBS followed by resuspension in 100 µL of 1 × binding buffer solution supplied within the kit. Finally, cells were incubated with 5 μL of annexin V-FITC and 5 μL of PI for 15 min at room temperature in the dark before acquiring data using BD FACSVerse flow cytometer (BD Biosciences, San Jose, CA). Annexin V/FITC positive cells were regarded as apoptotic cells analyzed using Cell Quest software (BD Biosciences).

MDA-MB-231 cells [5] = assay: Mitochondrial membrane potential by JC1 staining (fluorescence microscopy and flow cytometry); settings: for cellular population with increase in JC1 green fluorescence intensity (flow cytometry): control 3.93%
Experimental: The changes in mitochondrial membrane permeability were determined by JC1 (molecular probes). MDA-MB-231 cells were treated with compound 3 (0.25 µM, 0.5 µM, and 1 µM) for the indicated time period, harvested, washed twice in 1 × PBS, resuspended in PBS supplemented with JC1 dye (3 µM final concentration), and incubated for 15 min in the dark at 37°C and flow cytometric analysis was immediately performed using a FACSVerse instrument (BD) or images were captured with fluorescent microscope (Leica).

## CC1=[N+]2N=C(N)[S][Sn-2]23([c]2ccccc2)([c]2ccccc2)[O]C(c2ccncc2)=N[N+]3=C1C [complex 3, [SnPh2L^1]n]
MDA-MB-231 cells [1]; 0.25 µM, 24 h
  mean fluorescence intensity (MFI), fold change in comparison with the control (H2DCFDA, flow cytometry): 1.47 ± 0.17 fold
MDA-MB-231 cells [1]; 0.5 µM, 24 h
  mean fluorescence intensity (MFI), fold change in comparison with the control (H2DCFDA, flow cytometry): 2.58 ± 0.23 fold
MDA-MB-231 cells [1]; 1 µM, 10 mM NAC pretreatment, compared to complex 3 alone
  ROS generation / MFI in cells pretreated with N-acetylcysteine (NAC): reduce the generation of ROS; also recorded: decrease in the MFI value
MDA-MB-231 cells [1]; 1 µM, 24 h
  fold increase in fluorescence intensity in comparison to control (H2DCFDA, fluorescence microscopy): 3.57 ± 0.08 fold
  mean fluorescence intensity (MFI), fold change in comparison with the control (H2DCFDA, flow cytometry): 4.73 ± 0.14 fold
HeLa; 0.25 µM
  Percentage of cell viability Hela: 70%
HeLa; 0.5 µM
  Percentage of cell viability Hela: 46.24%
HeLa; 1 µM
  Percentage of cell viability Hela: 30.21%
HeLa; 2 µM
  Percentage of cell viability Hela: 25.19%
HeLa; 5 µM
  Percentage of cell viability Hela: 20.16%
PC3; 0.25 µM, 24 h
  Percentage of cell viability PC3: 82.17%
PC3; 0.5 µM, 24 h
  Percentage of cell viability PC3: 76.09%
PC3; 1 µM, 24 h
  Percentage of cell viability PC3: 60.16%
PC3; 2 µM, 24 h
  Percentage of cell viability PC3: 48.24%
PC3; 5 µM, 24 h
  Percentage of cell viability PC3: 35.73%
PC3; 24 h
  IC50: 1.97 ± 0.24 µM
[2]; 0.25 µM, 24 h
  Percentage of cell viability WI-38: 98.36%
[2]; 0.5 µM, 24 h
  Percentage of cell viability WI-38: 95.32%
[2]; 1 µM, 24 h
  Percentage of cell viability WI-38: 80.17%
[2]; 2 µM, 24 h
  Percentage of cell viability WI-38: 76.21%
[2]; 5 µM, 24 h
  Percentage of cell viability WI-38: 70.24%
[2]; 24 h
  IC50: 15.7 ± 0.28 µM
MDA-MB-231; 0.25 µM, 24 h
  Percentage of cell viability MDA-MB 231: 65.43%
MDA-MB-231; 0.5 µM, 24 h
  Percentage of cell viability MDA-MB 231: 50.06%
MDA-MB-231; 1 µM, 24 h
  Percentage of cell viability MDA-MB 231: 28.63%
MDA-MB-231; 2 µM, 24 h
  Percentage of cell viability MDA-MB 231: 20.19%
MDA-MB-231; 5 µM, 24 h
  Percentage of cell viability MDA-MB 231: 18.37%
MDA-MB-231; 24 h
  IC50: 0.51 ± 0.13 µM
HepG2; 0.25 µM, 24 h
  Percentage of cell viability HepG2: 80.36%
HepG2; 0.5 µM, 24 h
  Percentage of cell viability HepG2: 70.36%
HepG2; 1 µM, 24 h
  Percentage of cell viability HepG2: 58.39%
HepG2; 2 µM, 24 h
  Percentage of cell viability HepG2: 45.27%
HepG2; 5 µM, 24 h
  Percentage of cell viability HepG2: 30.68%
HepG2; 24 h
  IC50: 1.59 ± 0.17 µM
MDA-MB-231 cells [3]
  G2/M cell population (G2/M arrest): 56.07%
MDA-MB-231 cells [4]; 0.25 µM, 24 h
  early apoptotic cell population (LR quadrant): 15.99%
  late apoptotic cell population (UR quadrant): 5.24%
  annexin-V-FITC+/PI− (early apoptotic) and annexin V-FITC+/PI+ (late apoptotic) cell population: 21.23%
MDA-MB-231 cells [4]; 0.5 µM, 24 h
  early apoptotic cell population (LR quadrant): 36.25%
  late apoptotic cell population (UR quadrant): 21.56%
  annexin-V-FITC+/PI− (early apoptotic) and annexin V-FITC+/PI+ (late apoptotic) cell population: 57.81%
MDA-MB-231 cells [4]; 1 µM, 24 h
  early apoptotic cell population (LR quadrant): 32.32%
  late apoptotic cell population (UR quadrant): 34.15%
  annexin-V-FITC+/PI− (early apoptotic) and annexin V-FITC+/PI+ (late apoptotic) cell population: 66.47%
MDA-MB-231 cells [4]; 0.25, 0.5 and 1 µM, 24 h
  necrotic cell population zone: No significant cell population
MDA-MB-231 cells [5]; 0.25 µM, 24 h
  JC1 aggregate/JC1 monomer fluorescence intensity ratio (fluorescence microscopy): 1.36 ± 0.78
  cellular population with increase in JC1 green fluorescence intensity (flow cytometry): 37.47%
MDA-MB-231 cells [5]; 0.5 µM, 24 h
  cellular population with increase in JC1 green fluorescence intensity (flow cytometry): 52.22%
MDA-MB-231 cells [5]; 1 µM, 24 h
  JC1 aggregate/JC1 monomer fluorescence intensity ratio (fluorescence microscopy): 0.27 ± 0.13
  cellular population with increase in JC1 green fluorescence intensity (flow cytometry): 74.51%

## CC(=N\NC(=O)c1ccncc1)/C(C)=N/NC(N)=S [[L ^ 1 H 3 ]Cl] [Diacetyl-2-(Thiosemicarbazone)-3-(Isonicotinichydrazonium) Chloride]
HeLa
  IC50: 1.49 ± 0.46 µM
PC3; 24 h
  IC50: 3.49 ± 0.73 µM
[2]; 24 h
  IC50: 14.1 ± 0.48 µM
MDA-MB-231; 24 h
  IC50: 2.48 ± 0.47 µM
HepG2; 24 h
  IC50: 6.27 ± 0.98 µM

## CC(=N\NC(=O)c1ccncc1)/C(C)=N/NC(N)=S [L ^ 1 H 2, Diacetyl-2-(Thiosemicarbazone)-3-(Isonicotinichydrazone)]
HeLa; Homo sapiens, HeLa
  IC50: 1.06 ± 0.21 µM
PC3; Homo sapiens, PC-3, 24 h
  IC50: 4.86 ± 0.75 µM
[2]; Homo sapiens, WI-38, 24 h
  IC50: 10.8 ± 0.96 µM
MDA-MB-231; Homo sapiens, MDA-MB-231, 24 h
  IC50: 2.42 ± 0.33 µM
HepG2; Homo sapiens, HepG2, 24 h
  IC50: 5.14 ± 0.52 µM

## N.N.[Cl][Pt][Cl] [Cisplatin, cisplatin, reference compound]
HeLa
  IC50: 3.26 ± 0.23 µM
PC3; 24 h
  IC50: 5.36 ± 1.24 µM
[2]; 24 h
  IC50: 20.6 ± 1.52 µM
MDA-MB-231; 24 h
  IC50: 8.25 ± 1.64 µM
HepG2; 24 h
  IC50: 11.5 ± 2.06 µM
MDA-MB-231 cells [4]; 8 µM, positive control
  early apoptotic cell population (LR quadrant): 44.46%
  late apoptotic cell population (UR quadrant): 18.52%
MDA-MB-231 cells [5]; 8 µM
  JC1 aggregate/JC1 monomer fluorescence intensity ratio (fluorescence microscopy): 0.25 ± 0.06

## [As] [arsenic, reference compound]
MDA-MB-231 cells [1]; 1 µM, 24 h
  mean fluorescence intensity (MFI), fold change in comparison with the control (H2DCFDA, flow cytometry): 4.91 ± 0.05 fold
MDA-MB-231 cells [1]; positive control, concentration not given
  fold increase of green fluorescence intensity (H2DCFDA, fluorescence microscopy): 4.28 ± 0.09 fold

## CC1=[N+]2N=C(N)[S][Sn-2]23([CH3])([CH3])[O]C(c2ccncc2)=N[N+]3=C1C [complex 1, [SnMe2L^1]n]
HeLa
  IC50: 2.22 ± 0.54 µM
PC3; 24 h
  IC50: 2.76 ± 0.52 µM
[2]; 24 h
  IC50: 15.6 ± 0.73 µM
MDA-MB-231; 24 h
  IC50: 3.54 ± 0.34 µM
HepG2; 24 h
  IC50: 4.97 ± 0.76 µM
